# Test results published in US9346815B2, “5-chloro-2-difluoromethoxyphenyl pyrazolopyrimidine compounds, compositions and methods of use thereof” (Genentech, Inc., priority 2014, dated 2016).
# pEC50, pKi: −log10 of the molar value. Structures can show the parent of a compound that is named as a salt.
# Assays:
# [1] = biological target: isolated recombinant JAK2 kinase domain (Homo sapiens (Human), UniProt O60674); experiment: JAK2 enzyme assay (Caliper LabChip, peptide phosphorylation); assay type: biochemical; conditions: 25 μM ATP
# Sequence of isolated recombinant JAK2 kinase domain (O60674 849-1124): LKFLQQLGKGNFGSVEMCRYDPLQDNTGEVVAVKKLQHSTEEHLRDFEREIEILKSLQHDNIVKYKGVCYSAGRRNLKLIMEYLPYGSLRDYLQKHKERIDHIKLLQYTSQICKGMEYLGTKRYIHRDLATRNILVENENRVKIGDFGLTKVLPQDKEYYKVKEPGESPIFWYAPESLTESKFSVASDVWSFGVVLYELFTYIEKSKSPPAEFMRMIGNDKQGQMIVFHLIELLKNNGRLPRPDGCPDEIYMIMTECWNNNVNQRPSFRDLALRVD
# [2] = biological target: isolated recombinant JAK1 kinase domain (Homo sapiens (Human), UniProt P23458); experiment: JAK1 enzyme assay (Caliper LabChip, peptide phosphorylation); assay type: biochemical; conditions: isolated recombinant JAK1 kinase domain, 25 μM ATP
# Sequence of isolated recombinant JAK1 kinase domain (P23458 875-1153): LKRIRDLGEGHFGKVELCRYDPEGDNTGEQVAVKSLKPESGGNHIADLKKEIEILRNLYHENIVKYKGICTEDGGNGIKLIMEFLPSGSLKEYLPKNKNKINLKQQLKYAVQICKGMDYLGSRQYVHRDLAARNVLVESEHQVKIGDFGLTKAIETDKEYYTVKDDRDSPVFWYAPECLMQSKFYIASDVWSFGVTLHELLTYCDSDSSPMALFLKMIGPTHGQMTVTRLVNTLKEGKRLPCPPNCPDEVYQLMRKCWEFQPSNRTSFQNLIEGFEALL
# [3] = test system: JAK1-dependent STAT6 phosphorylation downstream of IL-13 stimulation in TF-1 human erythroleukemia cells; experiment: JAK1 pathway assay in TF-1 cells (IL-13-pSTAT6, MSD); assay type: cell-based; conditions: Homo sapiens, TF-1, TF-1 cells, read-out: IL13-pSTAT6 EC50_TF-1
# Method in brief: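 Inhibitors were added to TF-1 cells (GM-CSF-starved, serum-free) for 30 min or to BEAS-2B cells (complete medium) for 1 hr at 37° C. MSD detected pSTAT6.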
SMILES,pKi [1],pKi [2],pEC50 [3]
"O=C(Nc1cn(CC(=O)N2C[C@H]3CN(CCc4ccccc4)C[C@H]3C2)nc1-c1cc(Cl)ccc1OC(F)F)c1cnn2cccnc12 [Example 13, N-[1-[2-[(3aS,6aR)-2-(2-phenylethyl)-1,3,3a,4,6,6a-hexahydropyrrolo[3,4-c]pyrrol-5-yl]-2-oxo-ethyl]-3-[5-chloro-2-(difluoromethoxy)phenyl]pyrazol-4-yl]pyrazolo[1,5-a]pyrimidine-3-carboxamide]",9.18,9.14,7.66
"CN(CC(F)(F)F)C1CCN(C(=O)c2ccc(-n3cc(NC(=O)c4cnn5cccnc45)c(-c4cc(Cl)ccc4OC(F)F)n3)cc2)CC1 [Example 303, N-[3-[5-chloro-2-(difluoromethoxy)phenyl]-1-[4-[4-[methyl(2,2,2-trifluoroethyl)amino]piperidine-1-carbonyl]phenyl]pyrazol-4-yl]pyrazolo[1,5-a]pyrimidine-3-carboxamide]",8.48,8.72,7.11
"COc1ccc(CCN(C)C2CCN(C(=O)Cn3cc(NC(=O)c4cnn5cccnc45)c(-c4cc(Cl)ccc4OC(F)F)n3)CC2)cc1 [Example 95, N-[3-[5-chloro-2-(difluoromethoxy)phenyl]-1-[2-[4-[2-(4-methoxyphenyl)ethyl-methyl-amino]-1-piperidyl]-2-oxo-ethyl]pyrazol-4-yl]pyrazolo[1,5-a]pyrimidine-3-carboxamide]",8.59,9.10,7.76
"O=C(Nc1sc(N2CCN(CC3CC3)CC2)nc1-c1cc(Cl)ccc1OC(F)F)c1cnn2cccnc12 [Example 207, N-[4-[5-chloro-2-(difluoromethoxy)phenyl]-2-[4-(cyclopropylmethyl)piperazin-1-yl]thiazol-5-yl]pyrazolo[1,5-a]pyrimidine-3-carboxamide]",9.16,9.00,7.63
"O=C(Nc1cn(CC(=O)N2C[C@@H]3CN(C(=O)OCCCO)C[C@@H]3C2)nc1-c1cc(Cl)ccc1OC(F)F)c1cnn2cccnc12 [Example 15, 3-hydroxypropyl (3aR,6aS)-2-[2-[3-[5-chloro-2-(difluoromethoxy)phenyl]-4-(pyrazolo[1,5-a]pyrimidine-3-carbonylamino)pyrazol-1-yl]acetyl]-1,3,3a,4,6,6a-hexahydropyrrolo[3,4-c]pyrrole-5-carboxylate]",9.03,9.28,6.48
"Cc1cnc2c(C(=O)Nc3cn(CC(=O)N4C[C@H]5CN(C)C[C@H]5C4)nc3-c3cc(Cl)ccc3OC(F)F)cnn2c1 [Example 8, 6-Methyl-pyrazolo[1,5-a]pyrimidine-3-carboxylic acid {3-(5-chloro-2-difluoromethoxy-phenyl)-1-[2-((3aR,6aS)-5-methyl-hexahydro-pyrrolo[3,4-c]pyrrol-2-yl)-2-oxo-ethyl]-1H-pyrazol-4-yl}-amide hydrochloride]",6.92,7.02,6.13
"CN(C)C(=O)CCCN1CCC(n2cc(NC(=O)c3c(N)nn4cccnc34)c(-c3cc(Cl)ccc3OC(F)F)n2)CC1 [Example 148, 2-amino-N-[3-[5-chloro-2-(difluoromethoxy)phenyl]-1-[1-[4-(dimethylamino)-4-oxo-butyl]-4-piperidyl]pyrazol-4-yl]pyrazolo[1,5-a]pyrimidine-3-carboxamide]",10.00,9.19,8.03
"O=C(Nc1cn(CC(=O)N2C[C@H]3CN(CC4CCOCC4)C[C@H]3C2)nc1-c1cc(Cl)ccc1OC(F)F)c1cnn2cccnc12 [Example 26, N-[1-[2-[(3aR,6aS)-2-(tetrahydropyran-4-ylmethyl)-1,3,3a,4,6,6a-hexahydropyrrolo[3,4-c]pyrrol-5-yl]-2-oxo-ethyl]-3-[5-chloro-2-(difluoromethoxy)phenyl]pyrazol-4-yl]pyrazolo[1,5-a]pyrimidine-3-carboxamide]",9.03,9.11,8.21
"O=C(Nc1cn(CC(=O)N2CC3(CCNC3)C2)nc1-c1cc(Cl)ccc1OC(F)F)c1cnn2cccnc12 [Example 220, N-[3-[5-chloro-2-(difluoromethoxy)phenyl]-1-[2-(2,7-diazaspiro[3.4]octan-2-yl)-2-oxo-ethyl]pyrazol-4-yl]pyrazolo[1,5-a]pyrimidine-3-carboxamide]",8.57,8.91,5.93
"O=C(Nc1cn(C2CCN(CCCN3CCS(=O)(=O)CC3)CC2)nc1-c1cc(Cl)ccc1OC(F)F)c1cnn2cccnc12 [Example 161, N-[3-[5-chloro-2-(difluoromethoxy)phenyl]-1-[1-[3-(1,1-dioxo-1,4-thiazinan-4-yl)propyl]-4-piperidyl]pyrazol-4-yl]pyrazolo[1,5-a]pyrimidine-3-carboxamide]",9.89,8.91,7.65
"CS(=O)(=O)CCCN1C[C@@H]2CN(C(=O)Cn3cc(NC(=O)c4cnn5cccnc45)c(-c4cc(Cl)ccc4OC(F)F)n3)C[C@@H]2C1 [Example 27, N-[1-[2-[(3aS,6aR)-2-(3-methylsulfonylpropyl)-1,3,3a,4,6,6a-hexahydropyrrolo[3,4-c]pyrrol-5-yl]-2-oxo-ethyl]-3-[5-chloro-2-(difluoromethoxy)phenyl]pyrazol-4-yl]pyrazolo[1,5-a]pyrimidine-3-carboxamide]",9.26,9.34,6.84
"CN(CCO)C1CCN(C(=O)Cn2cc(NC(=O)c3c(N)nn4cccnc34)c(-c3cc(Cl)ccc3OC(F)F)n2)CC1 [Example 140, 2-amino-N-[3-[5-chloro-2-(difluoromethoxy)phenyl]-1-[2-[4-[2-hydroxyethyl(methyl)amino]-1-piperidyl]-2-oxo-ethyl]pyrazol-4-yl]pyrazolo[1,5-a]pyrimidine-3-carboxamide]",9.41,9.34,7.53
"CN1CCC2(C1)CN(C(=O)Cn1cc(NC(=O)c3cnn4cccnc34)c(-c3cc(Cl)ccc3OC(F)F)n1)C2 [Example 211, Pyrazolo[1,5-a]pyrimidine-3-carboxylic acid {3-(5-chloro-2-difluoromethoxyphenyl)-1-[2-(6-methyl-2,6-diazaspiro[3.4]oct-2-yl)-2-oxoethyl]-1H-pyrazol-4-yl}amide]",8.86,8.96,7.68
"O=C(Nc1sc(-c2ccc(CN3CC(F)(F)C3)cc2)nc1-c1cc(Cl)ccc1OC(F)F)c1cnn2cccnc12 [Example 257, N-[4-[5-chloro-2-(difluoromethoxy)phenyl]-2-[4-[(3,3-difluoroazetidin-1-yl)methyl]phenyl]thiazol-5-yl]pyrazolo[1,5-a]pyrimidine-3-carboxamide]",8.68,8.53,6.00
"CCN1C[C@@H]2CN(C(=O)Cn3cc(NC(=O)c4cnn5cccnc45)c(-c4cc(Cl)ccc4OC(F)F)n3)C[C@@H]2C1 [Example 5, Cis pyrazolo[1,5-a]pyrimidine-3-carboxylic acid {3-(5-chloro-2-difluoromethoxyphenyl)-1-[2-(5ethyl-hexahydro-pyrrolo[3,4-c]pyrrol-2-yl)-2-oxoethyl]-1H-pyrazol-4-yl}amide hydrochloride]",9.11,9.08,7.95
"O=C(Nc1cn(CC(=O)N2CCC[C@H]2C(O)CO)nc1-c1cc(Cl)ccc1OC(F)F)c1cnn2cccnc12 (stereo partly drawn) [Example 267, N-[3-[5-chloro-2-(difluoromethoxy)phenyl]-1-[2-[(2S)-2-(1,2-dihydroxyethyl)pyrrolidin-1-yl]-2-oxo-ethyl]pyrazol-4-yl]pyrazolo[1,5-a]pyrimidine-3-carboxamide]",9.21,9.18,7.45
"CN1CCC2(CCN(C(=O)Cn3cc(NC(=O)c4cnn5cccnc45)c(-c4cc(Cl)ccc4OC(F)F)n3)CC2)C1 [Example 224, N-[3-[5-chloro-2-(difluoromethoxy)phenyl]-1-[2-(2-methyl-2,8-diazaspiro[4.5]decan-8-yl)-2-oxo-ethyl]pyrazol-4-yl]pyrazolo[1,5-a]pyrimidine-3-carboxamide]",8.83,9.25,7.71
"CCNC1CCN(C(=O)Cn2cc(NC(=O)c3c(N)nn4cccnc34)c(-c3cc(Cl)ccc3OC(F)F)n2)CC1 [Example 75, 2-amino-N-[3-[5-chloro-2-(difluoromethoxy)phenyl]-1-[2-[4-(ethylamino)-1-piperidyl]-2-oxo-ethyl]pyrazol-4-yl]pyrazolo[1,5-a]pyrimidine-3-carboxamide]",9.21,9.18,7.10
"CN(Cc1ccc(F)c(Br)c1)C1CCN(C(=O)Cn2cc(NC(=O)c3cnn4cccnc34)c(-c3cc(Cl)ccc3OC(F)F)n2)CC1 [Example 131, N-[1-[2-[4-[(3-bromo-4-fluoro-phenyl)methyl-methyl-amino]-1-piperidyl]-2-oxo-ethyl]-3-[5-chloro-2-(difluoromethoxy)phenyl]pyrazol-4-yl]pyrazolo[1,5-a]pyrimidine-3-carboxamide]",8.57,8.97,7.63
"CCCCN(CCOc1ccc(C)cc1)C1CCN(C(=O)Cn2cc(NC(=O)c3cnn4cccnc34)c(-c3cc(Cl)ccc3OC(F)F)n2)CC1 [Example 108, N-[1-[2-[4-[butyl-[2-(4-methylphenoxy)ethyl]amino]-1-piperidyl]-2-oxo-ethyl]-3-[5-chloro-2-(difluoromethoxy)phenyl]pyrazol-4-yl]pyrazolo[1,5-a]pyrimidine-3-carboxamide]",8.44,8.61,7.37
"O=C(Nc1cn(C2CCN(CCCN3CCSCC3)CC2)nc1-c1cc(Cl)ccc1OC(F)F)c1cnn2cccnc12 [Example 159, N-[3-[5-chloro-2-(difluoromethoxy)phenyl]-1-[1-(3-thiomorpholinopropyl)-4-piperidyl]pyrazol-4-yl]pyrazolo[1,5-a]pyrimidine-3-carboxamide]",9.62,8.63,7.24
